Data taken from patent publication US20050208496A1, “Methods of testing for bronchial asthma or chronic obstructive pulmonary disease” (Genox Research, Inc., priority 2002, published 2005).
Read-outs that look alike come from different tables or passages of the source.

System: respiratory epithelial cells
Settings: IL-13 vs no stimulation

## IL-13: human IL-13 (Peprotech, Inc.) added to the medium at 50 ng/mL to stimulate respiratory epithelial cells
Lot 1 Day 3 IMM
  BENE (33331_at) expression change: −2.8
  CRA (1230_g_at) expression change: −2.3
  CTSL2 (40717_at) expression change: −2.2
  DUSP1 (1005_at) expression change: −2.4
  IGFBP3 (37319_at) expression change: −2
  IGFBP6 (1736_at) expression change: −2.8
  MMP9 (31859_at) expression change: −7.3
  MMP10 (1006_at) expression change: −3.4
  MSMB (32149_at) expression change: −3.7
  NDRG1 (36933_at) expression change: −2.3
  NOTCH3 (38750_at) expression change: −3.5
  PFTK1 (36502_at) expression change: −2.6
  PSCA (33792_at) expression change: −3.9
  SERPINA3 (33825_at) expression change: −3.8
  SERPINE1 (672_at) expression change: −7.7
  SERPINE1 (38125_at) expression change: −4.2
  TSPAN-5 (40990_at) expression change: −2.8
Lot 1 Day 7 AI
  AGR2 (38827_at) expression change: −2.7
  AKR1B10 (37482_at) expression change: −7.5
  AKR1C3 (37399_at) expression change: −4
  ANXA10 (32349_at) expression change: −2.5
  APM2 (32527_at) expression change: −3.8
  AREG (34898_at) expression change: −4.8
  BCAS1 (37821_at) expression change: −3.7
  BENE (33331_at) expression change: −7.3
  C4.4A (41641_at) expression change: −2.5
  CRA (1230_g_at) expression change: −2
  DEFB2 (32464_at) expression change: −4.3
  ECM1 (37600_at) expression change: −4.7
  EPHA1 (1108_s_at) expression change: −3.2
  ETFB (36881_at) expression change: −2
  FABP5 (39799_at) expression change: −4.2
  GABRE (34280_at) expression change: −2
  GPNMB (38379_at) expression change: 3.6
  HLA-DPB1 (38095_i_at) expression change: −4.4
  HLA-DPB1 (38096_f_at) expression change: −2.6
  IGFBP3 (1586_at) expression change: −2.4
  IGFBP3 (37319_at) expression change: −2.7
  IGFBP6 (1736_at) expression change: −7.7
  IMPA2 (36496_at) expression change: −2
  MMP9 (31859_at) expression change: −10.9
  MN1 (37283_at) expression change: −3.2
  MSMB (32149_at) expression change: −11.7
  NCALD (38803_at) expression change: −2.8
  NDRG1 (36933_at) expression change: −3.6
  NOTCH3 (38750_at) expression change: −4.6
  PSCA (33792_at) expression change: −5.8
  PTK2B (33804_at) expression change: −6.4
  PTPRZ1 (1364_at) expression change: −3.7
  RARRES1 (33505_at) expression change: −3.3
  RDC1 (34288_at) expression change: −5.3
  RTP801 (39827_at) expression change: −2
  S100A8 (41096_at) expression change: −6.2
  SERPINA3 (33825_at) expression change: −14.1
  SERPINB1 (33305_at) expression change: −2.3
  SERPINB5 (862_at) expression change: −2.2
  SERPINE1 (672_at) expression change: −7.8
  SERPINE1 (38125_at) expression change: −18.3
  STK39 (39120_at) expression change: −2.9
  TSPAN-5 (40990_at) expression change: −3.6
  VRP (38223_at) expression change: −2.5
  c-fos (1916_s_at) expression change: −2.6
Lot 1 Day 7 IMM
  AKR1B10 (37482_at) expression change: −6.7
  AKR1C3 (37399_at) expression change: −2.3
  APM2 (32527_at) expression change: −6.2
  AREG (34898_at) expression change: −5.2
  BENE (33331_at) expression change: −4.7
  ECM1 (37600_at) expression change: −18.4
  FABP5 (39799_at) expression change: −3.7
  GPNMB (38379_at) expression change: 4.9
  IGFBP3 (1586_at) expression change: −3.1
  IGFBP3 (37319_at) expression change: −3.1
  IGFBP6 (1736_at) expression change: −5.4
  MMP9 (31859_at) expression change: −16
  NDRG1 (36933_at) expression change: −2.4
  NOTCH3 (38750_at) expression change: −2.7
  PFTK1 (36502_at) expression change: −3.2
  PTK2B (33804_at) expression change: −4.1
  RARRES1 (1042_at) expression change: −3.5
  RARRES1 (33505_at) expression change: −2.7
  RDC1 (34288_at) expression change: −2.2
  SEC14L2 (32817_at) expression change: −2.9
  SERPINA3 (33825_at) expression change: −5.9
  SERPINB1 (33305_at) expression change: −2.1
  SERPINB5 (862_at) expression change: −2.5
  SERPINE1 (672_at) expression change: −31.3
  SERPINE1 (38125_at) expression change: −20.1
  STK39 (39120_at) expression change: −2
  TSPAN-5 (40990_at) expression change: −2.8
  c-fos (1915_s_at) expression change: −4.3
  c-fos (1916_s_at) expression change: −4.7
Lot 2 Day 3 AI
  AKR1B10 (37482_at) expression change: −7.1
  AKR1C3 (37399_at) expression change: −2.6
  ANXA10 (32349_at) expression change: −7.5
  APM2 (32527_at) expression change: −2.7
  AREG (34898_at) expression change: −14.6
  BCAS1 (37821_at) expression change: −4.6
  BDKRB2 (39310_at) expression change: −2.4
  BENE (33331_at) expression change: −4.8
  CRA (1230_g_at) expression change: −3.4
  CTSL2 (40717_at) expression change: −3.2
  DUSP1 (1005_at) expression change: −4.3
  EPHA1 (1108_s_at) expression change: −2.8
  FABP5 (39799_at) expression change: −3
  GPNMB (38379_at) expression change: −2.2
  IGFBP3 (1586_at) expression change: −2.9
  IGFBP3 (37319_at) expression change: −3
